Test results from ChEMBL document CHEMBL4715817, “Python Cathelicidin CATHPb1 Protects against Multidrug-Resistant Staphylococcal Infections by Antimicrobial-Immunomodulatory Duality” (J Med Chem, 2018).
The source made the active and inactive calls. No cut-off for these calls is given here. Peptide text beside a SMILES is read from it.

Key:
Macrophage [1] = test: Immunomodulatory activity in mouse peritoneal macrophage assessed as inhibition of LPS-induced IL-1beta level at 5 to 20 ug/ml measured after 24 hrs by ELISA; assay type: functional, tissue-based; details: dose 5-20 µg/ml
Macrophage [2] = test: Immunomodulatory activity in mouse peritoneal macrophage assessed as inhibition of LPS-induced TNF-alpha level at 5 to 20 ug/ml measured after 6 hrs by qRT-PCR analysis; assay type: functional, tissue-based; details: dose 5-20 µg/ml
Macrophage [3] = test: Immunomodulatory activity in mouse peritoneal macrophage assessed as inhibition of LPS-induced IL-1beta level at 5 to 20 ug/ml measured after 6 hrs by qRT-PCR analysis; assay type: functional, tissue-based; details: dose 5-20 µg/ml
Macrophage [4] = test: Immunomodulatory activity in mouse peritoneal macrophage assessed as inhibition of LPS-induced MCP-1 level at 5 to 20 ug/ml measured after 6 hrs by qRT-PCR analysis; assay type: functional, tissue-based; details: dose 5-20 µg/ml
Macrophage [5] = test: Immunomodulatory activity in mouse peritoneal macrophage assessed as inhibition of LPS-induced MCP-1 level at 5 to 20 ug/ml measured after 24 hrs by ELISA; assay type: functional, tissue-based; details: dose 5-20 µg/ml
Macrophage [6] = test: Immunomodulatory activity in mouse peritoneal macrophage assessed as inhibition of LPS-induced TNF-alpha level at 5 to 20 ug/ml measured after 24 hrs by ELISA; assay type: functional, tissue-based; details: dose 5-20 µg/ml
Macrophage [7] = test: Immunomodulatory activity in mouse peritoneal macrophage assessed as inhibition of LPS-induced IL-6 level at 5 to 20 ug/ml measured after 24 hrs by ELISA; assay type: functional, tissue-based; details: dose 5-20 µg/ml
Macrophage [8] = test: Immunomodulatory activity in mouse peritoneal macrophage assessed as inhibition of LPS-induced IL-6 level at 5 to 20 ug/ml measured after 6 hrs by qRT-PCR analysis; assay type: functional, tissue-based; details: dose 5-20 µg/ml
Macrophage [9] = test: Immunomodulatory activity in mouse peritoneal macrophage assessed as inhibition of LPS-induced IL-1beta level at 20 ug/ml measured after 6 hrs by qRT-PCR analysis; assay type: functional, tissue-based; details: dose 20.0 µg/ml
Macrophage [10] = test: Immunomodulatory activity in mouse peritoneal macrophage assessed as inhibition of LPS-induced IL-6 level at 20 ug/ml measured after 6 hrs by qRT-PCR analysis; assay type: functional, tissue-based; details: dose 20.0 µg/ml
Macrophage [11] = test: Immunomodulatory activity in mouse peritoneal macrophage assessed as inhibition of LPS-induced TNF-alpha level at 20 ug/ml measured after 24 hrs by ELISA; assay type: functional, tissue-based; details: dose 20.0 µg/ml
Macrophage [12] = test: Immunomodulatory activity in mouse peritoneal macrophage assessed as inhibition of LPS-induced IL-1beta level at 20 ug/ml measured after 24 hrs by ELISA; assay type: functional, tissue-based; details: dose 20.0 µg/ml
Macrophage [13] = test: Immunomodulatory activity in mouse peritoneal macrophage assessed as inhibition of LPS-induced TNF-alpha level at 20 ug/ml measured after 6 hrs by qRT-PCR analysis; assay type: functional, tissue-based; details: dose 20.0 µg/ml
Macrophage [14] = test: Immunomodulatory activity in mouse peritoneal macrophage assessed as inhibition of LPS-induced IL-6 level at 20 ug/ml measured after 24 hrs by ELISA; assay type: functional, tissue-based; details: dose 20.0 µg/ml
[15] = Immunomodulatory activity in mouse peritoneal macrophage assessed as inhibition of LPS-induced IL-6 level measured after 24 hrs by ELISA; assay type: functional; design: scale not given: the % may be the effect or the level left; details: dose 5-20 µg/ml, at 5 to 20 µg/mL
Staphylococcus aureus = test: In vivo antibacterial activity against methicillin sensitive Staphylococcus aureus ATCC 25923 infected in kunming mouse assessed as increase in survival rate at 10 mg/kg, ip administered 4 hrs after infection and measured up to 7 days after infection relative to control; assay type: functional; details: time day <=7

| SMILES | inhibition (Macrophage [1]) | inhibition (Macrophage [2]) | inhibition (Macrophage [3]) | inhibition (Macrophage [4]) | inhibition (Macrophage [5]) | inhibition (Macrophage [6]) | inhibition (Macrophage [7]) | inhibition (Macrophage [8]) | inhibition (Macrophage [9]) | inhibition (Macrophage [10]) | inhibition (Macrophage [11]) | inhibition (Macrophage [12]) | inhibition (Macrophage [13]) | inhibition (Macrophage [14]) | Activity [15] | Activity (Staphylococcus aureus) |
| --- | --- | --- | --- | --- | --- | --- | --- | --- | --- | --- | --- | --- | --- | --- | --- | --- |
| CC[C@H](C)[C@H](NC(=O)[C@H](CO)NC(=O)[C@H](CO)NC(=O)CNC(=O)CNC(=O)CNC(=O)[C@H](C)NC(=O)[C@H](Cc1ccccc1)NC(=O)[C@H](Cc1ccccc1)NC(=O)[C@H](CCCCN)NC(=O)[C@H](CCCCN)NC(=O)[C@H](CC(C)C)NC(=O)[C@H](CCCNC(=N)N)NC(=O)[C@H](CCCNC(=N)N)NC(=O)[C@H](CCSC)NC(=O)[C@H](Cc1ccccc1)NC(=O)[C@H](CCCCN)NC(=O)[C@H](CCCNC(=N)N)NC(=O)[C@H](Cc1ccccc1)NC(=O)CNC(=O)[C@H](CC(N)=O)NC(=O)[C@H](CCCNC(=N)N)NC(=O)[C@@H](N)CCCCN)C(=O)N[C@@H](C)C(=O)N[C@@H](Cc1cnc[nH]1)C(=O)N[C@H](C(=O)N[C@@H](CCCCN)C(=O)N[C@@H](CC(C)C)C(=O)N[C@@H](Cc1cnc[nH]1)C(=O)O)[C@@H](C)CC (H-KRNGFRKFMRRLKKFFAGGGSSIAHIKLH-OH) | Active | Active | Active | Active | Active | Active | Active | Active |  |  |  |  |  |  |  |  |
| CSCC[C@H](NC(=O)[C@H](C)NC(=O)[C@H](CCCNC(=N)N)NC(=O)[C@H](CC(C)C)NC(=O)[C@H](CCCNC(=N)N)NC(=O)[C@H](CCCNC(=N)N)NC(=O)[C@H](CCC(N)=O)NC(=O)[C@@H]1CCCN1C(=O)[C@H](C)NC(=O)[C@H](C)NC(=O)[C@@H](N)CCCNC(=N)N)C(=O)N[C@@H](C)C(=O)N[C@@H](CCCNC(=N)N)C(=O)N[C@@H](CC(C)C)C(=O)N[C@@H](CCCCN)C(=O)N[C@@H](CCCCN)C(=O)N[C@@H](Cc1ccccc1)C(=O)N[C@@H](C)C(=O)N[C@@H](CCC(=O)O)C(=O)N[C@@H](C)C(=O)NCC(=O)NCC(=O)N[C@@H](C)C(=O)N[C@@H](CC(=O)O)C(=O)N1CCC[C@H]1C(=O)N[C@@H](CC(=O)O)C(=O)N[C@@H](CO)C(=O)NCC(=O)NCC(=O)N[C@@H](CC(C)C)C(=O)N[C@@H](CCCNC(=N)N)C(=O)N[C@@H](C)C(=O)N[C@@H](CCCNC(=N)N)C(=O)N[C@@H](Cc1ccccc1)C(=O)N1CCC[C@H]1C(=O)N[C@@H](CCC(=O)O)C(=O)N[C@@H](CCCNC(=N)N)C(=O)O (H-RAAPQRRLRAMARLKKFAEAGGADPDSGGLRARFPER-OH) |  |  |  |  |  |  |  |  | Active | Active | Active | Active | Active | Active |  |  |
| CC[C@H](C)[C@H](NC(=O)[C@H](CCCNC(=N)N)NC(=O)[C@H](Cc1c[nH]c2ccccc12)NC(=O)CNC(=O)[C@H](Cc1ccc(O)cc1)NC(=O)[C@H](CCCNC(=N)N)NC(=O)[C@H](CCCNC(=N)N)NC(=O)[C@H](C)NC(=O)[C@H](Cc1ccccc1)NC(=O)[C@H](CCCNC(=N)N)NC(=O)CNC(=O)[C@H](C)NC(=O)CNC(=O)[C@H](CCCNC(=N)N)NC(=O)[C@@H](NC(=O)[C@H](Cc1ccccc1)NC(=O)[C@H](CCCNC(=N)N)NC(=O)[C@H](CCCNC(=N)N)NC(=O)[C@H](Cc1c[nH]c2ccccc12)NC(=O)[C@H](CCCNC(=N)N)NC(=O)[C@H](CO)NC(=O)[C@H](CCCNC(=N)N)NC(=O)[C@@H](N)[C@@H](C)O)[C@@H](C)CC)C(=O)N[C@@H](C)C(=O)N[C@@H](CC(C)C)C(=O)NCC(=O)N[C@@H](CC(C)C)C(=O)N[C@H](C(=O)NCC(=O)O)C(C)C (H-TRSRWRRFIRGAGRFARRYGWRIALGLVG-OH) | Active | Active | Active | Active | Active | Active | Active | Active |  |  |  |  |  |  | 65.59% |  |
| CN[C@H](CC(C)C)C(=O)N[C@H]1C(=O)N[C@@H](CC(N)=O)C(=O)N[C@H]2C(=O)N[C@H]3C(=O)N[C@H](C(=O)N[C@H](C(=O)O)c4cc(O)cc(O)c4-c4cc3ccc4O)[C@H](O)c3ccc(c(Cl)c3)Oc3cc2cc(c3O[C@@H]2O[C@H](CO)[C@@H](O)[C@H](O)[C@H]2O[C@H]2C[C@](C)(N)[C@H](O)[C@H](C)O2)Oc2ccc(cc2Cl)[C@H]1O [VANCOMYCIN] |  |  |  |  |  |  |  |  |  |  |  |  |  |  |  | 35% |
